details: rat; liver microsomes; pH 7.4; 15.0 min; 1.0 µM

SMILES	half-life
CCOc1ccc(CCNC(=O)c2ccc3ccccc3n2)cc1OCC	1.7 min
COc1ccc(-n2nc(C3CCN([S+](=O)([O-])c4cccc(C(F)(F)F)c4)CC3)[nH]c2=O)cc1	15 min
O=C(Nc1nc(-c2ccccc2)cs1)c1ccncc1NS(=O)(=O)c1cccnc1	20 min
O=C(NCc1cccc(C(F)(F)F)c1)c1ccc(CN2CCCCC2)cc1	15 min
C[S+](=O)([O-])N1CCC(Cn2ccc3c(N4CCOCC4)nc(-c4cccc5[nH]ccc45)cc32)CC1	15.9 min
CCOC(=O)C1CCN(C(=O)Nc2ccc3c(c2)nc(C)n3C)CC1	1 min
CCN(CC)S(=O)(=O)c1ccc(N2CCCC2)c(NS(=O)(=O)c2ccccc2)c1	1.1 min
NC(=O)C1CCN(c2ncc(-c3cccc(N4CCOCC4)c3)s2)CC1	> 30 min
FC(F)(F)c1cccc(N2CCN(C(=S)Nc3ccccn3)CC2)c1	15.5 min
COc1ccc(Cl)cc1C(=O)Nc1ccc(NC(=O)c2ccco2)cc1	> 30 min
c1ccc2c(N3CCOCC3)nc(-c3ccncc3)nc2c1	10 min
Cc1ccc(S(=O)(=O)Nc2cnccc2C(=O)Nc2cccc3ccccc23)cc1	5.6 min
Cc1ccc(C)c(CN2CCC(CNC(=O)Nc3ccc(Br)cc3F)CC2)c1	3.58 min
Fc1ccc(Nc2ccnc(-c3ccncc3)n2)cc1F	13 min
Fc1ccc(-c2ccc(Nc3nc(-c4ccncc4)nc4ccccc34)cc2F)c(F)c1	23 min
C[S+](=O)([O-])c1ccc(-c2nc(C(=O)N3CCOCC3)n3ccccc23)cc1	> 30 min
Fc1cc(-c2nc(Nc3ccc(F)c(F)c3)c3ccccc3n2)ccn1	> 30 min
COc1ccccc1Nc1ccnc(N2CCN(C(=O)c3ccc(F)cc3)CC2)n1	11.2 min
CCOc1ccc(N2CC(c3nc(-c4ccccn4)no3)CC2=O)cc1 (configuration not stated)	> 30 min
CCc1ccc(OC(C)C(=O)N2CCC(c3nc4ccccc4o3)CC2)cc1 (configuration not stated)	1.32 min
O=C(Nc1ncc(Cc2ccc(C(F)(F)F)cc2)s1)c1cn(-c2ccccc2)cn1	> 30 min
COc1cc(O)c([C@H](CC(=O)N2CC(C)CC(C)C2)c2ccc3c(c2)OCO3)c(OC)c1 (some centres not stated)	3.3 min
O=C(Nc1nc(-c2ccccn2)cs1)c1cccc(S(=O)(=O)N2CCOCC2)c1	8.47 min
Cc1nc2sccn2c(=O)c1S(=O)(=O)Nc1ccc(N2CCN(C)CC2)cc1	17.8 min
CC1(C)CNc2cc(NC(=O)c3cccnc3NCc3ccncc3)ccc21	15.2 min
CCN1CCN(CCCOc2ccc(-c3ccccc3)cc2)CC1	7.9 min

SMILES	half-life
COc1cc2c(c(OC)c1OC)-c1ccc(SC)c(=O)cc1C(N)CC2 (configuration not stated)	9.88 min
O=C(c1cnc(N2CCCCC2)c2ccccc12)N1CCN(c2ccc(Cl)cc2)CC1	2.8 min
O=C1Nc2cccc(Cl)c2/C1=C\c1cc(Cl)c(O)c(Cl)c1	> 30 min
CN(C)C(=O)C1CCN(c2nc(-c3ccc(Br)cc3)cs2)CC1	> 30 min
CC(=O)c1c(C)[nH]c(C(=O)Nc2ccc(C)c(S(=O)(=O)N3CCCCCC3)c2)c1C	1.9 min
CC[C@@H](C)Nc1cc(C(=O)NC2CC3CCC(C2)N3c2ccc(C(=O)C3CC3)cn2)c(C)cc1C(N)=O (some centres not stated)	23.4 min
COC(=O)CNC(=O)c1nc(-c2ccc([S+](C)(=O)[O-])cc2)c2ccccn12	> 30 min
CN1CCN(c2ccc(Nc3nn4c(=O)c5ccccc5nc4s3)cc2)CC1	15.2 min
CCCN1CNc2c(c(=O)[nH]c(=S)n2Cc2ccc(OC)c(OC)c2)C1	> 30 min
CCc1cccc(NC(=O)c2cc(-c3ccc[nH]3)n[nH]2)c1	6.57 min
CN1CCN(C(c2ccccc2)c2ccc(Cl)cc2)CC1 (configuration not stated)	3 min
CCOc1ccc(OCC)c(NC(=O)C(NS(=O)(=O)c2ccc(Br)s2)c2ccccc2)c1 (configuration not stated)	2.04 min
Cc1ccc(-c2cc(C(=O)Nc3ccc(S(=O)(=O)N(C)C)cc3)c3ccccc3n2)cc1C	3.4 min
Cc1cccc(N2CCN(C(=O)Cn3ncc4c3-c3ccccc3OC4)CC2)c1C	2.76 min
O=C(c1nc(-c2cccnc2)c2ccccn12)N1CCN(c2ncccn2)CC1	8.43 min
NC(=O)c1ccc(-c2nc3c([nH]2)CN(C(=O)CN2CCOCC2)CC3)cc1	> 30 min
CC(C)(C)C1CCc2nc(NC(=O)c3cccc(Cl)c3)sc2C1 (configuration not stated)	20 min
CNc1oc(-c2cccc3ccccc23)nc1C(=O)OC	> 30 min
COc1ccc(-c2ccc3ncc(Nc4ccncc4)n3n2)cc1OC	23 min
O=c1c2ccccc2nc2n1CCC2	> 30 min
COc1ccc(-c2ccc(C(=O)NC3CC(c4cc(=O)[nH]c(N)n4)C3)o2)cc1 (configuration not stated)	> 30 min
Fc1ccc(CN2CCOC[C@H]2c2ncc(-c3ccc(Cl)s3)[nH]2)cc1	3.47 min
O=C(O)c1cccc(-n2cccc2/C=C2/NC(=O)N(c3cccc(Cl)c3)C2=O)c1	> 30 min
C=CC(=O)N1CCCN(c2cc(NCCC(=O)O)nc(-c3ccccn3)n2)CC1	> 30 min
O=C(Nc1ncc(Cc2cccc(C(F)(F)F)c2)s1)c1ccc(-c2cccc([N+](=O)[O-])c2)o1	> 30 min
Fc1cc(Nc2nc(-c3ccncc3)nc3ccccc23)ccc1-c1ccc(F)c(F)c1F	24 min

SMILES	half-life
CC1=C(C(=O)Nc2nncs2)C2(CCCC2)N=C(Nc2nc3ccccc3o2)N1	> 30 min
CCOC(=O)C1CCN(c2ncnc3c2c(-c2ccccc2)cn3-c2ccccc2)CC1	1.69 min
CN(C)C(=O)c1nc(-c2ccc(S(C)(=O)=O)cc2)c2cnccn12	> 30 min
O=c1[nH]c(C2CCN(S(=O)(=O)c3ccc4c(c3)OCCO4)CC2)nc2c1nnn2Cc1c(F)cccc1Cl	1.4 min
O=C(Cc1c[nH]c2ncc(-c3ccc(Cl)cc3)cc12)NCc1cccnc1	1.66 min
CC(C)(C)C(O)C(Oc1ccc(Cl)cc1)n1cncn1 (configuration not stated)	> 30 min
CC(C)(C#N)c1ccc(N2C(=O)OCc3cnc4ccc(-c5cnc6ccccc6c5)cc4c32)cc1	2.84 min
COc1cc(-c2ccnc3c2c(C)nn3-c2cccc(C(F)(F)F)c2)ccc1O	> 30 min
CN1CCN(C(c2ccccc2)c2ccccc2)CC1	2.56 min
Nc1ncnc2c1ncn2[C@H]1O[C@@H](CO)[C@@H](O)[C@H]1N	> 30 min
Cc1ccc(C(=O)Nc2ccc(CN3CCN(C)CC3)c(C(F)(F)F)c2)cc1C#Cc1cnc2cccnn12	> 30 min
N#Cc1nc(-c2cccc3ccccc23)oc1NCc1ccccc1	8.6 min
O=C(Nc1ccc(S(=O)(=O)Nc2nc(-c3ccccc3)cs2)cc1)c1ccc2ccccc2c1	> 30 min
Fc1ccc(Nc2nc(-c3ccncc3)nc3ccccc23)cc1F	9.82 min
COc1cc(/C=C(\C#N)c2nc3ccccc3[nH]2)ccc1OCc1ccc(F)cc1	7.99 min
NS(=O)(=O)c1ccc(NC(=O)c2cc3ncccn3n2)cc1	> 30 min
COc1cccc(NS(=O)(=O)c2ccc(C)cc2)c1C(=O)Nc1nc(-c2ccccc2)cs1	3.7 min
CC(C)NC(=O)C1CCN(C(=O)c2cc3sccc3n2Cc2ccc(Cl)cc2)CC1	1.05 min
CCCCNc1oc(-c2cccc3ccccc23)nc1C#N	5.78 min
NC(=O)C1CCN(c2nc(-c3ccccc3-c3ccccc3)cs2)CC1	2.45 min
COc1ccc(C[C@@H]2C(=O)N[C@H](C)C(=O)N(C)[C@@H]3C(=O)N(C)[C@@H](Cc4ccc(O)c(c4)Oc4ccc(cc4)[C@H]3O)C(=O)N[C@@H](C)C(=O)N[C@H](C)C(=O)N2C)cc1	27.6 min
CCCCOc1ccc(CNC(=O)c2cc3n(n2)CCCN(Cc2ccc(C)cc2)C3=O)cc1	4.33 min
Fc1cnc(-c2ccccc2C(F)F)nc1NCc1ccc(-c2cccnc2)cc1	7.1 min
Cc1ccc(-c2nc(C)c(C(=O)Nc3ccc4c(c3)C(=O)N3CCC[C@H]3C(=O)N4)s2)cc1	27.2 min
Cc1ccc(S(=O)(=O)N2CCN(C(=O)c3cc4c(s3)CCC4)CC2)cc1	1.58 min
FC(F)(F)c1ccccc1-c1nc(NCc2cccs2)c2ccccc2n1	2.5 min

SMILES	half-life
Clc1ccc2ncc(-c3cccc(NC4CCNCC4)n3)n2c1	> 30 min
c1ccc(Nc2cc3c(cn2)CN(Cc2ccc4[nH]ccc4c2)CCN3)cc1	2.09 min
CN(C)CCCN1c2ccc(O)cc2Sc2ccc(Cl)cc21	10.7 min
O=C(c1ccco1)N1CCN(c2nc(-c3ccc(Br)cc3)cs2)CC1	> 30 min
O=C(Cn1c2ncccc2c(=O)n1-c1ccccc1)Nc1ccc(Cl)cc1C(F)(F)F	4.81 min
N#Cc1cccc(S(=O)(=O)Nc2cnccc2C(=O)Nc2nc(-c3ccccc3)cs2)c1	14 min
O=C1Nc2ccccc2/C1=C\c1cc(F)c(O)c(F)c1	23 min
Cc1ccc(S(=O)(=O)Nc2ccccc2C(=O)Nc2nccs2)cc1	1.6 min
COc1ccc(C(=O)N[C@@H]2CCC[C@@H]2C(=O)N2CCC(Cc3ccccc3)CC2)cc1	2.66 min
CC(=O)N1CCc2c(sc3c2c(=O)n(-c2ccccc2Cl)c(=O)n3Cc2cccc(C)c2)C1	1.41 min
O=C1CCCC2=C1C(c1[nH]ncc1Cl)N=C(Nc1nc3cc([S+](=O)([O-])N4CCCC4)ccc3o1)N2 (configuration not stated)	8 min
CC(NCc1ccc2c(c1)nc(NC(=O)c1ccc(-c3cn[nH]c3)s1)n2CC(C)(C)O)C(C)(C)C (configuration not stated)	18.8 min
O=S(=O)(c1ccc2ccccc2c1)N1CCN(c2nc(-c3cccs3)nc3ccccc23)CC1	2.34 min
COc1ccc(C2c3c(oc4ccc(Cl)cc4c3=O)C(=O)N2CCCN(C)C)cc1OC (configuration not stated)	> 30 min
O=[S+]([O-])(Nc1ccc(N2CCNCC2)cc1)c1ccc(NCc2ccc(Br)cc2O)cc1	> 30 min
CSc1ccc(/C=C/c2nc3ccccc3n2S(=O)(=O)c2ccc(Br)cc2)cc1	6.3 min
CCCN1C(CC(C)C)=NS(=O)(=O)c2cc(NC(=O)c3cccs3)ccc21	4.56 min
CCn1c(-c2nonc2N)nc2cnc(Oc3cccc(NC(=O)c4ccc(OCCN5CCOCC5)cc4)c3)cc21	6.56 min
CCCCN(C)C(=O)c1c(C)sc2ccn(CCC)c(=O)c12	13.3 min
Cc1cc(NC(=S)N2CCN(c3cccc(C(F)(F)F)c3)CC2)nc2ccccc12	26 min
CCOC(=O)c1csc(NC(=O)c2ccncc2NS(=O)(=O)c2ccc(C)cc2)n1	1.9 min
Cc1ccc(S(=O)(=O)Nc2cncc(C(=O)Nc3nc(-c4ccccc4)cs3)c2)cc1	19 min
COc1cccc(CNc2ccc(S(=O)(=O)Nc3nc4ccccc4o3)cc2)c1O	> 30 min
COc1ccc(C2Nc3ccccc3C(=O)N2Cc2ccco2)cc1 (configuration not stated)	1.6 min
